According to paper PMC5377379, “Early neurotrophic pharmacotherapy rescues developmental delay and Alzheimer’s-like memory deficits in the Ts65Dn mouse model of Down syndrome” (Scientific Reports, 2017):
Where a SMILES comes first, the peptide text is derived from it. The star is where a group is joined. X1 = NC(=O)C12CC3CC(CC(N*)(C3)C1)C2

B1: full-length human recombinant CNTF protein: full-length human recombinant ciliary neurotrophic factor protein given in clinical trials (protein, UniProt P26441 1-200, looked up)
chain: MAFTEHSPLTPHRRDLCSRSIWLARKIRSDLTALTESYVKHQGLNKNINLDSADGMPVASTDQWSELTEAERLQENLQAYRTFHVLLARLLEDQQVHFTPTEGDFHQAIHTLLLQVAAFAYQIEELMILLEYKIPRNEADGMPINVGDGGLFEKKLWGLKVLQELSQWTVRSIHDLRFISSHQTGIPARGSHYIANNKKM
modifications: full-length

Tests used:
[1] = done at EVER NeuroPharma GmbH, cited from earlier work
Description: (§1) The studies regarding the plasma stability and stability in gastric and intestinal juices of P021 were done at EVER NeuroPharma GmbH, Unterach, Austria[67]. Briefly, the compound P021 was found stable both in artificial gastric juice (>90%) and in artificial intestinal juice (>95%) as analyzed up to 30 min and 2 hours, respectively.

[2] = test system: STAT3 phosphorylation at Tyr705; assay: Western blot of pSTAT3 (Tyr705) in hippocampus of 3-week-old offspring (placental/lactational and BBB delivery); type: in vivo, WT and Ts65Dn mice; conditions: inferred from reduced hippocampal pSTAT3 in 3-week-old offspring; 200 nmoles/g diet to dams E8-PND21
Description: as §1, with “respectively. […] It is also worth mentioning that young mice may have consumed some P021 diet directly as young mice start consuming solid food by ~PND16.” for “respectively.”
After completion of behavioral testing, the 3-week-old mice from the neurobehavioral development study and the ~7-month-old mice from the longitudinal study were anesthetized with an overdose of sodium pentobarbital (125 mg/kg) and were transcardially perfused with 0.1 M phosphate buffered saline (PBS). The mouse brains were extracted immediately after perfusion. The left hemisphere of the brain was dissected into hippocampus, cerebral cortex, cerebellum, and brain stem, immediately frozen on dry ice, and then stored at −80 °C till further processing for biochemical analysis.
The hippocampus from left cerebral hemisphere stored at −80 °C from each mouse was homogenized in a Teflon-glass homogenizer to obtain 10% (w/v) homogenate. […] The blots were developed and quantified as described before. For quantification of different protein levels, each immunoreactive band was normalized to its corresponding GAPDH band.

Ts65Dn mice = assay: General examination and monthly body weight, adult mice and mothers; type: in vivo
Description: We treated 2–3-month-old pregnant Ts65Dn (Dn) and wild-type (WT) mothers from day 8 (E8) of pregnancy till the weaning of the pups on PND21 with compound P021 (P) in the feed, or as control with vehicle (V) feed (Fig. 1). The offsprings also had access to the P021 or vehicle diet as per mother’s group till PND21. The offsprings from Ts65Dn mothers were genotyped to identify Ts65Dn and WT pups. There were 6 study groups as follows: WT offsprings of WT mothers on vehicle diet (WT-V-WT), WT offsprings of WT mothers on P021 diet (WT-P-WT), WT offsprings of Ts65Dn mothers on vehicle diet (Dn-V-WT), WT offsprings of Ts65Dn mothers on P021 diet (Dn-P-WT), Ts65Dn offsprings of Ts65Dn mothers on vehicle diet (Dn-V-Dn), and Ts65Dn offsprings of Ts65Dn mothers on P021 diet (Dn-P-Dn). In the first phase of the study (Fig. 1b), the newborn pups were evaluated for neurobehavioral development starting on PND1 and carried out until PND21 (or until the appearance of developmental milestone/reflex). After completion of behavioral testing, the 3-week-old mice were sacrificed and brain tissue was collected. The neurobehavioral development component of the study was performed on WT-V-WT (n = 11), WT-P-WT (n = 10), Dn-V-WT (n = 10), Dn-P-WT (n = 9), Dn-V-Dn (n = 11), and Dn-P-Dn (n = 12) mice. In the second phase of the study (Fig. 1c), after prenatal to early postnatal treatment, the offsprings were allowed to grow till 5 months of age, and then general behavioral evaluation and cognitive testing were performed. After weaning, the offsprings received regular mouse chow. After completion of behavioral testing, ~7-month-old animals were sacrificed and brain tissue was collected for biochemical analyses. This longitudinal component of the study was carried out on WT-V-WT (n = 10), WT-P-WT (n = 12), Dn-V-WT (n = 12), Dn-P-WT (n = 11), Dn-V-Dn (n = 13), and Dn-P-Dn (n = 12) mice.
For both the neurobehavioral development in mouse pups and the longitudinal adult mice studies, the physical state and condition of the animals (both mothers and offsprings) were carefully examined throughout the respective study duration. Body weight of mouse pups was recorded daily from PND1 to PND21. Body weight of adult mice was evaluated monthly. Adult mice were not subjected to any behavioral testing till they were ~5 months of age.

3xTg-AD mice = conditions: concluded from hippocampal pSTAT3 decrease after oral P021 in diet; cited from earlier work
[3] = adult C57Bl/6 mice, commercial service APREDICA; cited from earlier work
[4] = cited from earlier work
Description: The compound P021 exerts a neurogenic and neurotrophic effect by inhibiting leukemia inhibitory factor (LIF) signaling pathway and enhancing brain derived neurotrophic factor (BDNF) expression by increasing its transcription.

[5] = administration in clinical trials, humans; cited from earlier work
Description: Overall, we observed a significant group effect in body weight [Fig. 7a; 2-way ANOVA, F(5,410) = 14.28, p < 0.0001] and its change with age [F(4,410) = 100.25, p < 0.0001], however, group × age interaction was not significant [F(20,410) = 0.10, p = 1.0]. Bonferroni’s p ...

| Molecule | stable in artificial gastric juice ([1]; analyzed up to 30 min) [%] | stable in artificial intestinal juice ([1]; analyzed up to 2 hours) [%] | placental/lactational delivery to offspring brain [2] | general behavioral profile of the adult mice (Ts65Dn mice; adult offspring treated E8-PND21) | body weight, adult Ts65Dn mice (Ts65Dn mice; monthly evaluation, Dn-V-Dn vs. Dn-P-Dn, p > 0.05, treated E8-PND21) | body weight, adult WT mice (Ts65Dn mice; monthly evaluation, WT-V-WT vs. WT-P-WT and Dn-V-WT vs. Dn-P-WT, p > 0.05) | general physical condition of treated mothers (Ts65Dn mice; pregnant mothers on P021 diet, evaluated up to 2-3 months after weaning the pups) | oral bioavailability (3xTg-AD mice) | BBB permeability [3] | water solubility [4] | adverse effects in clinical trials [5] |
| --- | --- | --- | --- | --- | --- | --- | --- | --- | --- | --- | --- |
| CC(=O)N[C@@H](CC(=O)O)C(=O)NCC(=O)NCC(=O)N[C@@H](CC(C)C)C(=O)NC12CC3CC(C1)CC(C(N)=O)(C3)C2 [Peptide P021] (Ac-DGGL-X1) | > 90 | > 95 | delivered across placental barrier during pregnancy and via breast milk during lactation | did not affect the general behavioral profile | did not induce any significant changes in body weight | did not produce any alterations in body weight | did not show any treatment-induced alteration in their general physical condition | orally bioavailable | BBB-permeable | water-soluble | – |
| B1 | – | – | – | – | – | – | – | – | – | – | anorexia, skeletal muscle loss, hyperalgesia, severe cramps, and muscle pain |
